Legend:
Melanocortin receptor 4 [1] = target: T1, Melanocortin receptor 4 (Homo sapiens, UniProt P32245); assay: Displacement of [125I]NDP-MSH from human MC4R stably expressed in HEK293 cells; format: cell-based
[2] = Cmax in mouse at 10 mg/kg, po; format: ADME, organism-based; parameters: dose 10 mg/kg, route oral; conditions: in vivo
Melanocortin receptor 3 = Melanocortin receptor 3 (Homo sapiens, UniProt P41968); assay: Displacement of [125I]NDP-MSH from human MC3R stably expressed in HEK293 cells; format: cell-based
Melanocortin receptor 5 = Melanocortin receptor 5 (Homo sapiens, UniProt P33032); assay: Displacement of [125I]NDP-MSH from human MC5R stably expressed in HEK293 cells; format: cell-based
Mus musculus [3] = assay: AUC in mouse at 5 mg/kg, iv; format: ADME, organism-based, Plasma; parameters: dose 5 mg/kg, route intravenous; conditions: in vivo
[4] = Volume of distribution in mouse at 5 mg/kg, iv; format: ADME, organism-based; parameters: dose 5 mg/kg, route intravenous; conditions: in vivo, read-out: Vdss
Melanocortin receptor 4 [5] = target: T1, Melanocortin receptor 4; assay: Activity at MC4R assessed as inhibition of alpha MSH-stimulated cAMP production in HEK293 cells; format: functional, cell-based
[6] = Bioavailability in mouse at 10 mg/kg, po; format: ADME, organism-based; conditions: in vivo
[7] = Tmax in mouse at 10 mg/kg, po; format: ADME, organism-based; parameters: dose 10 mg/kg, route oral; conditions: in vivo
[8] = Clearance in mouse at 5 mg/kg, iv; format: ADME, organism-based; parameters: dose 5 mg/kg, route intravenous; conditions: in vivo
[9] = Drug level in mouse brain at 5 mg/kg, iv after 4 hrs; format: ADME, organism-based; parameters: dose 5 mg/kg, route intravenous; conditions: read-out: Drug uptake
[10] = target: Melanocyte-stimulating hormone receptor (Homo sapiens, UniProt Q01726); assay: Displacement of [125I]NDP-MSH from human MC1R stably expressed in HEK293 cells; format: cell-based
Mus musculus [11] = assay: AUC in mouse at 10 mg/kg, po; format: ADME, organism-based, Plasma; parameters: dose 10 mg/kg, route oral; conditions: in vivo
[12] = Lipophilicity, log D of the compound; format: physicochemical; conditions: octanol/water
[13] = Half life in mouse at 5 mg/kg, iv; format: ADME, organism-based; parameters: dose 5 mg/kg, route intravenous; conditions: in vivo
[14] = Drug level in mouse brain at 5 mg/kg, iv after 1 hr; format: ADME, organism-based; parameters: dose 5 mg/kg, route intravenous; conditions: read-out: Drug uptake

T1 sequence (P32245 whole entry): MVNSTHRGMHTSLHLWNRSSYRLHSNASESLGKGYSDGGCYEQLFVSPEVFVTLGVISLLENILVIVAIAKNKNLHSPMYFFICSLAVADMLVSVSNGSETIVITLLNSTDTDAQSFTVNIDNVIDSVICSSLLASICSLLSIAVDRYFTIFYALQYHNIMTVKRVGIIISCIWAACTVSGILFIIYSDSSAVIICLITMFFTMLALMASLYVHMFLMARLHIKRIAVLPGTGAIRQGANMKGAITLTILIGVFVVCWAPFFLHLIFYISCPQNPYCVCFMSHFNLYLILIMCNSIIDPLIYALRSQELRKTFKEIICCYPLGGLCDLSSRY
Chain of Melanocortin receptor 3 (P41968 whole entry): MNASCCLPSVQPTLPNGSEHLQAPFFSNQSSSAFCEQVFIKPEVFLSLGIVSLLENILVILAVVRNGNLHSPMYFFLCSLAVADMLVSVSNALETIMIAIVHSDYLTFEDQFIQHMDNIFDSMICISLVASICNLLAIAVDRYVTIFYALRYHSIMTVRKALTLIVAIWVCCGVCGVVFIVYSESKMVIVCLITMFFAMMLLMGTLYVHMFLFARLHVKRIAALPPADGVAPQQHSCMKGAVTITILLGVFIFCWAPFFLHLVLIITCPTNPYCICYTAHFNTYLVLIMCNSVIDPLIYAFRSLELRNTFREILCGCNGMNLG
Chain of Melanocortin receptor 5 (P33032 whole entry): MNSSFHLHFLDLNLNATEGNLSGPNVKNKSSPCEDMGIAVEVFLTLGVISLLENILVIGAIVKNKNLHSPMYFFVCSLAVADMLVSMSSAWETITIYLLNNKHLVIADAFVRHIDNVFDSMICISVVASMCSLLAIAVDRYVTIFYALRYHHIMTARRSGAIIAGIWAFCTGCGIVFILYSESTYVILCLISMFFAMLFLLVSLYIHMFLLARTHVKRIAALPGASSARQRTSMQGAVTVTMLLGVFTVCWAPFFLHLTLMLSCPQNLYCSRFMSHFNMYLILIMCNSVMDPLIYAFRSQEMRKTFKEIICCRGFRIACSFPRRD

Row | Structure (SMILES) | Ki (Melanocortin receptor 4 [1]) | other results
1 | Cc1cc(Cl)ccc1CC(C)C(=O)N1CCN(c2ccc(C(F)(F)F)cc2[C@@H](N)CC(C)C)CC1 (stereo not given in full) | 38 nM | –
2 | CC(C)C[C@H](N)c1cc(C(F)(F)F)ccc1N1CCN(C(=O)C(C)Cc2cccc(Cl)c2)CC1 (stereo not given in full) | 920 nM | –
3 | Cc1cc(Cl)ccc1C[C@@H](C)C(=O)N1CCN(c2ccccc2[C@H](N)CC(C)C)CC1 | 1700 nM | –
4 | CC(C)C[C@H](N)c1cc(C(F)(F)F)ccc1N1CCN(C(=O)COc2cccc(Cl)c2)CC1 | 2600 nM | –
5 | CC(C)C[C@H](N)c1cc(Cl)ccc1N1CCN(C(=O)C(C)Cc2ccc(Cl)cc2)CC1 (stereo not given in full) | 67 nM | –
6 | COc1ccc(OCC(=O)N2CCN(c3ccc(C(F)(F)F)cc3[C@@H](N)CC(C)C)CC2)cc1 | 3800 nM | –
7 | Cc1ccc(CC(C)C(=O)N2CCN(c3ccc(C(F)(F)F)cc3[C@@H](N)CC(C)C)CC2)c(C)c1 (stereo not given in full) | 92 nM | –
8 | COc1cc(Cl)ccc1C[C@H](C)C(=O)N1CCN(c2ccc(C(F)(F)F)cc2[C@@H](N)CC(C)C)CC1 | 31 nM | –
9 | Cc1ccc(N2CCN(C(=O)[C@H](C)Cc3ccc(Cl)cc3Cl)CC2)c([C@@H](N)CC(C)C)c1 | 8.8 nM | –
10 | CC(C)C[C@H](N)c1cc(C(F)(F)F)ccc1N1CCN(C(=O)CCC(=O)c2ccc(Cl)cc2)CC1 | 820 nM | –
11 | Cc1ccc(OCC(=O)N2CCN(c3ccc(C(F)(F)F)cc3[C@@H](N)CC(C)C)CC2)cc1 | 4400 nM | –
12 | COc1cc(Cl)ccc1CC(C)C(=O)N1CCN(c2ccc(C(F)(F)F)cc2[C@@H](N)CC(C)C)CC1 (stereo not given in full) | 14 nM | Cmax [2]: 99 ng/mL; Ki (Melanocortin receptor 3): 320 nM; Ki (Melanocortin receptor 5): 86 nM; AUC (Mus musculus [3]): 1450 ng·h/mL; Vd [4]: 10.3 L/kg; IC50 (Melanocortin receptor 4 [5]): 1700 nM; bioavailability [6]: 8.6%; Tmax [7]: 0.25 h; clearance [8]: 62.3 mL/min/kg; concentration at 4 h [9]: 122 ng/g; Activity [10]: 23%; AUC (Mus musculus [11]): 249 ng·h/mL; logD [12]: > 4; half-life [13]: 1.9 h; concentration at 1 h [14]: 735 ng/g
13 | COc1ccc(CC(C)C(=O)N2CCN(c3ccc(C(F)(F)F)cc3[C@@H](N)CC(C)C)CC2)cc1 (stereo not given in full) | 120 nM | –
14 | CC(C)C[C@H](N)c1cc(C(F)(F)F)ccc1N1CCN(C(=O)CCC(=O)N(C)C)CC1 | > 10000 nM | –
15 | CC(C)C[C@H](N)c1cc(C(F)(F)F)ccc1N1CCN(C(=O)CNc2ccccc2)CC1 | 3600 nM | –
16 | CC(C)C[C@H](N)c1cc(C(F)(F)F)ccc1N1CCN(C(=O)COc2ccc([N+](=O)[O-])cc2)CC1 | 3100 nM | –
17 | CC(C)C[C@H](N)c1cc(C(F)(F)F)ccc1N1CCN(C(=O)Cn2cnc3ccccc32)CC1 | 2100 nM | –
18 | CC(C)C[C@H](N)c1cc(C(F)(F)F)ccc1N1CCN(C(=O)CC(C)C(=O)c2ccc(Cl)cc2)CC1 (stereo not given in full) | 1100 nM | –
19 | CC(C)C[C@H](N)c1cc(C(F)(F)F)ccc1N1CCN(C(=O)C(C)Cc2ccc(Cl)cc2)CC1 (stereo not given in full) | 47 nM | –
20 | COc1cc(Cl)ccc1CC(C)C(=O)N1CCN(c2ccc(Cl)cc2[C@@H](N)CC(C)C)CC1 (stereo not given in full) | 9.1 nM | –

Row | Structure (SMILES) | Ki (Melanocortin receptor 4 [1]) | other results
21 | Cc1ccc(OCC(=O)N2CCN(c3ccc(C(F)(F)F)cc3[C@@H](N)CC(C)C)CC2)c(C)c1 | 4000 nM | –
22 | COc1ccc(CC(C)C(=O)N2CCN(c3ccc(Cl)cc3[C@@H](N)CC(C)C)CC2)cc1 (stereo not given in full) | 160 nM | –
23 | CC(C)C[C@H](N)c1cc(C(F)(F)F)ccc1N1CCN(C(=O)C(C)Cc2ccc(Cl)c(Cl)c2)CC1 (stereo in doubt; 8j) | 120 nM | –
24 | CC(C)C[C@H](N)c1cc(C(F)(F)F)ccc1N1CCN(C(=O)COc2cccc3ccccc23)CC1 | 2600 nM | –
25 | CC(C)C[C@H](N)c1cc(C(F)(F)F)ccc1N1CCN(C(=O)CCC(N)=O)CC1 | > 10000 nM | –
26 | CC(C)C[C@H](N)c1cc(C(F)(F)F)ccc1N1CCN(C(=O)[C@H](C)Cc2ccc(Cl)cc2Cl)CC1 | 26 nM | –
27 | CC(C)C[C@H](N)c1cc(C(F)(F)F)ccc1N1CCN(C(=O)C(C)Cc2ccc(Cl)cc2F)CC1 (stereo not given in full) | 60 nM | –
28 | CC(C)C[C@H](N)c1cc(C(F)(F)F)ccc1N1CCN(C(=O)CCC2CCCCC2)CC1 | 5700 nM | –
29 | CC(C)C[C@H](N)c1cc(C(F)(F)F)ccc1N1CCN(C(=O)COc2ccc(Cl)cc2Cl)CC1 | 4200 nM | –
30 | CC(C)C[C@H](N)c1cc(C(F)(F)F)ccc1N1CCN(C(=O)C(C)Cc2ccc(Cl)c(Cl)c2)CC1 (stereo in doubt; 8q) | 1600 nM | –
31 | COc1cc(CC(C)C(=O)N2CCN(c3ccc(C(F)(F)F)cc3[C@@H](N)CC(C)C)CC2)ccc1Cl (stereo not given in full) | 230 nM | –
32 | CC(C)C[C@H](N)c1cc(C(F)(F)F)ccc1N1CCN(C(=O)CSc2ccc(Cl)cc2Cl)CC1 | 1500 nM | –
33 | COc1ccc(CC(C)C(=O)N2CCN(c3ccc(C(F)(F)F)cc3[C@@H](N)CC(C)C)CC2)cc1F (stereo not given in full) | 200 nM | –
34 | Cc1ccc(N2CCN(C(=O)[C@H](C)Cc3ccc(Cl)cc3F)CC2)c([C@@H](N)CC(C)C)c1 | 20 nM | –
35 | CC(C)C[C@H](N)c1cc(C(F)(F)F)ccc1N1CCN(C(=O)COc2cccc(Cl)c2Cl)CC1 | 2500 nM | –
36 | CC(C)C[C@H](N)c1cc(C(F)(F)F)ccc1N1CCN(C(=O)CCCC2CCCCC2)CC1 | 4100 nM | –
37 | CC(C)C[C@H](N)c1cc(C(F)(F)F)ccc1N1CCN(C(=O)[C@H](C)Cc2ccc(Cl)cc2)CC1 | 31 nM | –
38 | COc1cc(Cl)ccc1C[C@@H](C)C(=O)N1CCN(c2ccc(C(F)(F)F)cc2[C@@H](N)CC(C)C)CC1 | 6.5 nM | –
39 | Cc1ccc(N2CCN(C(=O)[C@H](C)Cc3ccc(Cl)cc3C)CC2)c([C@@H](N)CC(C)C)c1 | 5.9 nM | –
40 | CC(C)C[C@H](N)c1ccccc1N1CCN(C(=O)[C@H](C)Cc2ccc(Cl)cc2Cl)CC1 | 16 nM | –

Row | Structure (SMILES) | Ki (Melanocortin receptor 4 [1]) | other results
41 | CC(C)C[C@H](N)c1cc(C(F)(F)F)ccc1N1CCN(C(=O)Cc2ccc(Cl)cc2Cl)CC1 | 2800 nM | –
42 | CC(C)C[C@H](N)c1cc(C(F)(F)F)ccc1N1CCN(C(=O)COc2ccc(Cl)c(Cl)c2)CC1 | 2500 nM | –
43 | COc1cccc(CC(C)C(=O)N2CCN(c3ccc(C(F)(F)F)cc3[C@@H](N)CC(C)C)CC2)c1 (stereo not given in full) | 3100 nM | –
44 | CC(C)C[C@H](N)c1ccccc1N1CCN(C(=O)[C@H](C)Cc2ccc(Cl)cc2F)CC1 | 67 nM | –
45 | CC(C)C[C@H](N)c1cc(C(F)(F)F)ccc1N1CCN(C(=O)COc2ccccc2Cl)CC1 | 4500 nM | –
46 | CC(C)C[C@H](N)c1cc(C(F)(F)F)ccc1N1CCN(C(=O)[C@@H](C)Cc2ccc(Cl)cc2Cl)CC1 | 140 nM | –
47 | CC(C)C[C@H](N)c1cc(C(F)(F)F)ccc1N1CCN(C(=O)COc2ccc(Cl)cc2)CC1 | 2900 nM | –
48 | CC(C)C[C@H](N)c1cc(F)ccc1N1CCN(C(=O)C(C)Cc2ccc(Cl)cc2)CC1 (stereo not given in full) | 390 nM | –
49 | Cc1cc(Cl)ccc1C[C@@H](C)C(=O)N1CCN(c2ccccc2[C@@H](N)CC(C)C)CC1 | 12 nM | –
50 | CC(C)C[C@H](N)c1cc(C(F)(F)F)ccc1N1CCN(C(=O)CCNC2CCCCC2)CC1 | 4800 nM | –
51 | Cc1ccc(CC(C)C(=O)N2CCN(c3ccc(C(F)(F)F)cc3[C@@H](N)CC(C)C)CC2)cc1C (stereo not given in full) | 240 nM | –
52 | CC(C)C[C@H](N)c1cc(C(F)(F)F)ccc1N1CCN(C(=O)COc2ccc(O)cc2)CC1 | 4600 nM | –
53 | CC(C)C[C@H](N)c1cc(C(F)(F)F)ccc1N1CCN(C(=O)C(C)Cc2ccc(Cl)cc2O)CC1 (stereo not given in full) | 36 nM | –
54 | CC(C)C[C@H](N)c1cc(C(F)(F)F)ccc1N1CCN(C(=O)COc2ccccc2)CC1 | > 10000 nM | –
55 | Cc1cc(CC(C)C(=O)N2CCN(c3ccc(C(F)(F)F)cc3[C@@H](N)CC(C)C)CC2)ccc1Cl (stereo not given in full) | 71 nM | –
56 | Cc1ccc(N2CCN(C(=O)[C@H](C)Cc3ccc(Cl)cc3)CC2)c([C@@H](N)CC(C)C)c1 | 25 nM | Cmax [2]: 267 ng/mL; Ki (Melanocortin receptor 3): 1300 nM; Ki (Melanocortin receptor 5): 1000 nM; AUC (Mus musculus [3]): 2560 ng·h/mL; Vd [4]: 10.2 L/kg; IC50 (Melanocortin receptor 4 [5]): 560 nM; bioavailability [6]: 34.4%; Tmax [7]: 0.5 h; clearance [8]: 33.3 mL/min/kg; concentration at 4 h [9]: 330 ng/g; Ki [10]: 3100 nM; AUC (Mus musculus [11]): 1760 ng·h/mL; logD [12]: 3; half-life [13]: 3.5 h; concentration at 1 h [14]: 940 ng/g
57 | CCOc1cccc(CC(C)C(=O)N2CCN(c3ccc(C(F)(F)F)cc3[C@@H](N)CC(C)C)CC2)c1 (stereo not given in full) | 2200 nM | –
58 | COc1cc(Cl)ccc1C[C@@H](C)C(=O)N1CCN(c2ccc(C)cc2[C@@H](N)CC(C)C)CC1 | 8.1 nM | –
59 | CC(C)C[C@H](N)c1ccccc1N1CCN(C(=O)[C@H](C)Cc2ccc(Cl)cc2)CC1 | 80 nM | –
60 | CC(C)C[C@H](N)c1cc(C(F)(F)F)ccc1N1CCN(C(=O)COc2ccc3ccccc3c2)CC1 | 2000 nM | –

— ChEMBL document CHEMBL1149357, “Propionylpiperazines as human melanocortin-4 receptor ligands” (Bioorg Med Chem Lett, 2006)
